Source: ChEMBL document CHEMBL1126529, “A diazine heterocycle replaces a six-membered hydrogen-bonded array in the active site of scytalone dehydratase” (Bioorg Med Chem Lett, 1993)

How the values were obtained:
Scytalone dehydratase [1] = molecular target: T1, Scytalone dehydratase (Magnaporthe oryzae (strain 70-15 / FGSC 8958) (Rice blast fungus)(Pyricularia oryzae), UniProt P56221); experiment: The inhibitory activity (Ki) of the deprotonated compound was measured against scytalone dehydratase at pH 9.8; set-up: species or system Pyricularia grisea
T1 sequence (P56221 whole entry): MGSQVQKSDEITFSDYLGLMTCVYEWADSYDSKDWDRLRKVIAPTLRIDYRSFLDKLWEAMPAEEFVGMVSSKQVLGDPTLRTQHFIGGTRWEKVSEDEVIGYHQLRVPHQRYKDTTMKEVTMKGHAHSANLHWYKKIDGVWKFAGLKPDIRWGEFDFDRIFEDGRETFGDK

Scytalone dehydratase [2] = molecular target: T1, Scytalone dehydratase; experiment: The inhibitory activity (Ki) of the protonated compound was measured against scytalone dehydratase at pH 7.0; set-up: species or system Pyricularia grisea

c1ccc(CCCNc2ncnc3ccccc23)cc1
Ki (Scytalone dehydratase [1]): 19 nM | Ki (Scytalone dehydratase [2]): 1800 nM

c1ccc(CCCNc2nccc3ccccc23)cc1
Ki (Scytalone dehydratase [1]): 2300 nM | Ki (Scytalone dehydratase [2]): 6700 nM

c1ccc(CCCNc2ccnc3ccccc23)cc1
Ki (Scytalone dehydratase [1]): 45000 nM | Ki (Scytalone dehydratase [2]): 88000 nM

O=C(NCCCc1ccccc1)c1ccccc1O
Ki (Scytalone dehydratase [1]): 230 nM | Ki (Scytalone dehydratase [2]): 7.3 nM
